Laboratory results reported in PubChem BioAssay (NCI).
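Exposure lasted 48 hours, with cells grown in 96-well plates and compounds tested at five concentrations. Definition used: TGI = concentration required for complete inhibition of growth.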

How the values were obtained:
Assay in all cases: NCI tumour cell line growth inhibition, 48 h
OVCAR-5 ovarian = system: OVCAR-5 ovarian
SK-MEL-2 melanoma = system: SK-MEL-2 melanoma
XF 498 CNS = system: XF 498 CNS
CCRF-CEM leukemia = system: CCRF-CEM leukemia
HCC-2998 colon = system: HCC-2998 colon
NCI/ADR-RES ovarian = system: NCI/ADR-RES ovarian
LOX IMVI melanoma = system: LOX IMVI melanoma
HOP-62 NSCLC = system: HOP-62 NSCLC
OVCAR-4 ovarian = system: OVCAR-4 ovarian
HOP-92 NSCLC = system: HOP-92 NSCLC
P388/ADR leukemia = system: P388/ADR leukemia
A498 renal = system: A498 renal
SF-539 CNS = system: SF-539 CNS
A549 NSCLC = system: A549 NSCLC
IGROV1 ovarian = system: IGROV1 ovarian
MOLT-4 leukemia = system: MOLT-4 leukemia
HCT-116 colon = system: HCT-116 colon
SF-295 CNS = system: SF-295 CNS
HOP-18 NSCLC = system: HOP-18 NSCLC
P388 leukemia = system: P388 leukemia
U251 CNS = system: U251 CNS
RXF 393 renal = system: RXF 393 renal
HL-60(TB) leukemia = system: HL-60(TB) leukemia
RPMI-8226 leukemia = system: RPMI-8226 leukemia
DMS 273 small cell lung = system: DMS 273 small cell lung
UO-31 renal = system: UO-31 renal
SF-268 CNS = system: SF-268 CNS
HT29 colon = system: HT29 colon
OVCAR-8 ovarian = system: OVCAR-8 ovarian
UACC-62 melanoma = system: UACC-62 melanoma
KM12 colon = system: KM12 colon
SNB-78 CNS = system: SNB-78 CNS
HCT-15 colon = system: HCT-15 colon
K-562 leukemia = system: K-562 leukemia
EKVX NSCLC = system: EKVX NSCLC
SW-620 colon = system: SW-620 colon
SN12K1 renal = system: SN12K1 renal
SK-OV-3 ovarian = system: SK-OV-3 ovarian
UACC-257 melanoma = system: UACC-257 melanoma
DLD-1 colon = system: DLD-1 colon
DMS 114 small cell lung = system: DMS 114 small cell lung
SN12C renal = system: SN12C renal
OVCAR-3 ovarian = system: OVCAR-3 ovarian
NCI-H460 lung = system: NCI-H460 lung
MALME-3M melanoma = system: MALME-3M melanoma
M19-MEL melanoma = system: M19-MEL melanoma
NCI-H23 lung = system: NCI-H23 lung
SK-MEL-28 melanoma = system: SK-MEL-28 melanoma
COLO 205 colon = system: COLO 205 colon
CAKI-1 renal = system: CAKI-1 renal
MCF7 breast = system: MCF7 breast
SNB-19 CNS = system: SNB-19 CNS
NCI-H522 lung = system: NCI-H522 lung
KM20L2 colon = system: KM20L2 colon
SK-MEL-5 melanoma = system: SK-MEL-5 melanoma
SNB-75 CNS = system: SNB-75 CNS
NCI-H226 lung = system: NCI-H226 lung

Work on CCCCC1=C(Br)C(=C(Br)Br)OC1=O yielded a TGI (OVCAR-5 ovarian) of 30.3 µM, a TGI (SK-MEL-2 melanoma) of 8.49 µM and a TGI (XF 498 CNS) of 19.9 µM. For the same compound, the TGI (CCRF-CEM leukemia) was 7.81 µM, the TGI (HCC-2998 colon) was 18.1 µM and the TGI (NCI/ADR-RES ovarian) was 11.9 µM. The TGI (LOX IMVI melanoma) was 4.78 µM, the TGI (HOP-62 NSCLC) was 19 µM and the TGI (OVCAR-4 ovarian) was 3.32 µM. The TGI (HOP-92 NSCLC) was 23.4 µM, the TGI (P388/ADR leukemia) was 5.76 µM and the TGI (A498 renal) was 31 µM. For the same compound, the TGI (SF-539 CNS) was 10.5 µM, the TGI (A549 NSCLC) was 33.8 µM and the TGI (IGROV1 ovarian) was 5.92 µM. For the same compound, the TGI (MOLT-4 leukemia) was 5.66 µM, the TGI (HCT-116 colon) was 8.85 µM and the TGI (SF-295 CNS) was 23.7 µM. It also gave a TGI (HOP-18 NSCLC) of 10.5 µM, a TGI (P388 leukemia) of 2.4 µM and a TGI (U251 CNS) of 17.1 µM. The TGI (RXF 393 renal) was 5.95 µM, the TGI (HL-60(TB) leukemia) was 5.38 µM and the TGI (RPMI-8226 leukemia) was 4.67 µM. It also gave a TGI (DMS 273 small cell lung) of 8.01 µM, a TGI (UO-31 renal) of 24.2 µM and a TGI (SF-268 CNS) of 7.9 µM. The TGI (HT29 colon) was 10.2 µM, the TGI (OVCAR-8 ovarian) was 11.4 µM and the TGI (UACC-62 melanoma) was 6.51 µM. For the same compound, the TGI (KM12 colon) was 9.28 µM, the TGI (SNB-78 CNS) was 37 µM and the TGI (HCT-15 colon) was 5.55 µM. For the same compound, the TGI (K-562 leukemia) was 13 µM, the TGI (EKVX NSCLC) was 10.6 µM and the TGI (SW-620 colon) was 12.4 µM. The TGI (SN12K1 renal) was 3.96 µM, the TGI (SK-OV-3 ovarian) was 31.4 µM and the TGI (UACC-257 melanoma) was 6.16 µM. For the same compound, the TGI (DLD-1 colon) was 4.37 µM, the TGI (DMS 114 small cell lung) was 5.71 µM and the TGI (SN12C renal) was 7.92 µM. The TGI (OVCAR-3 ovarian) was 6.05 µM, the TGI (NCI-H460 lung) was 16.8 µM and the TGI (MALME-3M melanoma) was 5.31 µM. For the same compound, the TGI (M19-MEL melanoma) was 8.42 µM, the TGI (NCI-H23 lung) was 15.8 µM and the TGI (SK-MEL-28 melanoma) was 7.78 µM. The TGI (COLO 205 colon) was 8.11 µM, the TGI (CAKI-1 renal) was 5.53 µM and the TGI (MCF7 breast) was 15.4 µM. The TGI (SNB-19 CNS) was 20.3 µM, the TGI (NCI-H522 lung) was 3.5 µM and the TGI (KM20L2 colon) was 24.8 µM. The TGI (SK-MEL-5 melanoma) was 13.5 µM, the TGI (SNB-75 CNS) was 16.5 µM and the TGI (NCI-H226 lung) was 9.35 µM.
